In BigSolDB 2.1:

CC(=O)OCC(=O)[C@@]12N=C(C)O[C@@H]1C[C@H]1[C@@H]3CCC4=CC(=O)C=C[C@]4(C)[C@H]3[C@@H](O)C[C@@]12C
solubility (mole fraction)
Settings | in acetone | in ethanol | in ethyl acetate | in isopropanol
293.15 K | 0.00618 | 0.00167 | 0.00331 | 0.00127
298.15 K | 0.00674 | 0.002 | 0.00361 | 0.00161
303.15 K | 0.00735 | 0.00236 | 0.00393 | 0.00202
308.15 K | 0.00797 | 0.00279 | 0.00426 | 0.00249
313.15 K | 0.00861 | 0.00334 | 0.00465 | 0.00305
318.15 K | 0.00946 | 0.00397 | 0.0051 | 0.0038
323.15 K | 0.0104 | 0.00477 | 0.00559 | 0.00456
328.15 K | – | 0.00566 | 0.0061 | 0.00566
333.15 K | – | 0.00663 | 0.00668 | 0.00683
338.15 K | – | 0.00795 | 0.00737 | 0.00813
343.15 K | – | 0.00957 | 0.00805 | 0.00973
348.15 K | – | – | – | 0.0121
